System: 422866-222-R5-J1-PDC complex spheroids viability
Assay: Anticancer human tumor 422866-222-R5-J1-PDC patient-derived pancreatic adenocarcinoma cell line growth inhibition [RAS]
Settings: for IC50: curve of first compound; for viability, T/C: stronger effect = lower value; active = viability on the fitted dose curve at most 10% of control; inactive = the rest
Method in brief: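 Agents were tested in combination matrices in half-log decrements from a top concentration at or near clinical Cmax (10 microM if undetermined). Targets were multi-cell spheroids of tumour lines plus HUVEC and MSC stromal cells.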
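Note: spheroids exposed to compounds for 7 days.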
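Throughout, for viability, T/C: 100% = DMSO vehicle control viability.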

Cc1nc(N2CCC3(CC2)COC(C)C3N)c(CO)nc1Sc1ccnc(N)c1Cl (centres undefined) + C=CC(=O)N1CCN(c2nc(OCC3CCCN3C)nc3c(F)c(-c4nc(N)cc(C)c4C(F)(F)F)c(Cl)cc23)C(C)C1
< 31.6 nM: IC50 (second compound 0.00316 µM) | IC50 (second compound 0.01 µM) | IC50 (second compound 0.0316 µM) | IC50 (second compound 0.1 µM) | IC50 (second compound 0.316 µM) | IC50 (second compound 1 µM)
inactive: viability, T/C (second compound 0.00316 µM, first compound 0.0316 µM) 24.8% | viability, T/C (second compound 0.00316 µM, first compound 0.1 µM) 21.8% | viability, T/C (second compound 0.00316 µM, first compound 0.316 µM) 17.4% | viability, T/C (second compound 0.00316 µM, first compound 1 µM) 15% | viability, T/C (second compound 0.00316 µM, first compound 3.16 µM) 15.1% | viability, T/C (second compound 0.00316 µM, first compound 10 µM) 14.8% | viability, T/C (second compound 0.01 µM, first compound 0.0316 µM) 30.3% | viability, T/C (second compound 0.01 µM, first compound 0.1 µM) 19.8% | viability, T/C (second compound 0.01 µM, first compound 0.316 µM) 25% | viability, T/C (second compound 0.01 µM, first compound 1 µM) 15.4% | viability, T/C (second compound 0.01 µM, first compound 3.16 µM) 14.8% | viability, T/C (second compound 0.01 µM, first compound 10 µM) 14.2% | viability, T/C (second compound 0.0316 µM, first compound 0.0316 µM) 21.1% | viability, T/C (second compound 0.0316 µM, first compound 0.1 µM) 19.3% | viability, T/C (second compound 0.0316 µM, first compound 0.316 µM) 13.8% | viability, T/C (second compound 0.0316 µM, first compound 1 µM) 13.8% | viability, T/C (second compound 0.0316 µM, first compound 3.16 µM) 15.8% | viability, T/C (second compound 0.0316 µM, first compound 10 µM) 17.7% | viability, T/C (second compound 0.1 µM, first compound 0.0316 µM) 20% | viability, T/C (second compound 0.1 µM, first compound 0.1 µM) 15.1% | viability, T/C (second compound 0.1 µM, first compound 0.316 µM) 15.7% | viability, T/C (second compound 0.1 µM, first compound 1 µM) 13.2% | viability, T/C (second compound 0.1 µM, first compound 3.16 µM) 17.5% | viability, T/C (second compound 0.1 µM, first compound 10 µM) 14.4% | viability, T/C (second compound 0.316 µM, first compound 0.0316 µM) 15.9% | viability, T/C (second compound 0.316 µM, first compound 0.1 µM) 16.4% | viability, T/C (second compound 0.316 µM, first compound 0.316 µM) 16% | viability, T/C (second compound 0.316 µM, first compound 1 µM) 13.4% | viability, T/C (second compound 0.316 µM, first compound 3.16 µM) 17.7% | viability, T/C (second compound 0.316 µM, first compound 10 µM) 17.8% | viability, T/C (second compound 1 µM, first compound 0.0316 µM) 21.5% | viability, T/C (second compound 1 µM, first compound 0.1 µM) 15.2% | viability, T/C (second compound 1 µM, first compound 0.316 µM) 19.2% | viability, T/C (second compound 1 µM, first compound 1 µM) 15.1% | viability, T/C (second compound 1 µM, first compound 3.16 µM) 15.9% | viability, T/C (second compound 1 µM, first compound 10 µM) 18.9%

CC(C)n1nc(-c2ccc3oc(N)nc3c2)c2c(N)ncnc21 + CCn1c(-c2cccnc2C(C)OC)c2c3cc(ccc31)N1CCOC(CC(NC(=O)C(C(C)C)N(C)C(=O)C3(F)CCN(C(=O)C#CC(C)(C)N(C)C)CC3)C(=O)N3CCCC(N3)C(=O)OCC(C)(C)C2)C1
< 0.316 nM: IC50 (second compound 0.000949 µM) | IC50 (second compound 0.003 µM) | IC50 (second compound 0.00949 µM) | IC50 (second compound 0.03 µM) | IC50 (second compound 0.0949 µM) | IC50 (second compound 0.3 µM)
inactive: viability, T/C (second compound 0.000949 µM, first compound 0.000316 µM) 26.9% | viability, T/C (second compound 0.000949 µM, first compound 0.001 µM) 24.3% | viability, T/C (second compound 0.000949 µM, first compound 0.00316 µM) 24.7% | viability, T/C (second compound 0.000949 µM, first compound 0.01 µM) 22.9% | viability, T/C (second compound 0.000949 µM, first compound 0.0316 µM) 23.1% | viability, T/C (second compound 0.000949 µM, first compound 0.1 µM) 22.1% | viability, T/C (second compound 0.003 µM, first compound 0.000316 µM) 23.4% | viability, T/C (second compound 0.003 µM, first compound 0.001 µM) 18.7% | viability, T/C (second compound 0.003 µM, first compound 0.00316 µM) 21% | viability, T/C (second compound 0.003 µM, first compound 0.01 µM) 17.6% | viability, T/C (second compound 0.003 µM, first compound 0.0316 µM) 14.1% | viability, T/C (second compound 0.003 µM, first compound 0.1 µM) 16.5% | viability, T/C (second compound 0.00949 µM, first compound 0.000316 µM) 23.4% | viability, T/C (second compound 0.00949 µM, first compound 0.001 µM) 25.9% | viability, T/C (second compound 0.00949 µM, first compound 0.00316 µM) 19.4% | viability, T/C (second compound 0.00949 µM, first compound 0.01 µM) 16.5% | viability, T/C (second compound 0.00949 µM, first compound 0.0316 µM) 14.7% | viability, T/C (second compound 0.00949 µM, first compound 0.1 µM) 12.2% | viability, T/C (second compound 0.03 µM, first compound 0.000316 µM) 21.5% | viability, T/C (second compound 0.03 µM, first compound 0.001 µM) 17.6% | viability, T/C (second compound 0.03 µM, first compound 0.00316 µM) 17.5% | viability, T/C (second compound 0.03 µM, first compound 0.01 µM) 16.6% | viability, T/C (second compound 0.03 µM, first compound 0.0316 µM) 15.4% | viability, T/C (second compound 0.03 µM, first compound 0.1 µM) 15.6% | viability, T/C (second compound 0.0949 µM, first compound 0.000316 µM) 17.8% | viability, T/C (second compound 0.0949 µM, first compound 0.001 µM) 15.4% | viability, T/C (second compound 0.0949 µM, first compound 0.00316 µM) 16.9% | viability, T/C (second compound 0.0949 µM, first compound 0.01 µM) 15.2% | viability, T/C (second compound 0.0949 µM, first compound 0.0316 µM) 12.2% | viability, T/C (second compound 0.0949 µM, first compound 0.1 µM) 12.5% | viability, T/C (second compound 0.3 µM, first compound 0.000316 µM) 15.4% | viability, T/C (second compound 0.3 µM, first compound 0.001 µM) 18.8% | viability, T/C (second compound 0.3 µM, first compound 0.00316 µM) 15.2% | viability, T/C (second compound 0.3 µM, first compound 0.01 µM) 15.1% | viability, T/C (second compound 0.3 µM, first compound 0.0316 µM) 12.3% | viability, T/C (second compound 0.3 µM, first compound 0.1 µM) 10.2%

From PubChem BioAssay AID2060901 (Molecular Pharmacology Branch, DTP, NCI, 2025)
